Calls of active or inactive are those of the source. No cut-off for these calls is given here. Residues, ends and D or L forms follow the SMILES beside them.

By IC50 is commonly meant the concentration needed to halve the response being measured.

For one assay, the system named is Candida albicans. As to the kind of experiment: Antimicrobial activity against Candida albicans. In kind it is functional, organism-based.
In the next assay the test system is P388. Briefly: Cytotoxicity against mouse P388 cells. The assay is classed as functional, cell-based.
A further assay relates to Bacillus subtilis. As to the kind of experiment: Antimicrobial activity against Bacillus subtilis. In kind it is functional, organism-based.

Take `CC(=O)N[C@@H](Cc1c[nH]c2ccccc12)C(=O)NC(C)(C)C(=O)NC(C)(C)C(=O)N[C@@H](CC(C)C)C(=O)N[C@H](C(=O)N[C@@H](CCC(N)=O)C(=O)NC(C)(C)C(=O)NC(C)(C)C(=O)NC(C)(C)C(=O)N[C@@H](CCC(N)=O)C(=O)N[C@@H](CC(C)C)C(=O)NC(C)(C)C(=O)N1CCC[C@H]1C(=O)N[C@@H](CCC(N)=O)C(=O)N[C@@H](C)CO)C(C)C` [CHRYSAIBOL] (HELM PEPTIDE1{[ac].W.[Aib].[Aib].L.V.Q.[Aib].[Aib].[Aib].Q.L.[Aib].P.Q.[C[C@@H](CO)N[*:1]]}$$$$V2.0): the outcome in the assay on Candida albicans was inactive. Moreover, the IC50 is 6.61 µM in the assay with P388 and 1.54 µM in the assay on Bacillus subtilis.

The values are drawn from ChEMBL document CHEMBL1156647, “Evolving trends in the dereplication of natural product extracts. 2. The isolation of chrysaibol, an antibiotic peptaibol from a New Zealand sample of the mycoparasitic fungus Sepedonium chrysospermum” (J Nat Prod, 2008).
